# Experimental data: patent publication US20150025031A1, “METABOLIC DOWNREGULATION FOR CELL SURVIVAL” (WAKE FOREST UNIVERSITY HEALTH SCIENCES, priority 2012, published 2015)
# Read-outs that look alike come from different tables or passages of the source.
# Experiments:
# C2C12 cells [1] = experiment: Myotube formation of hypoxia-survived C2C12 cells; type: cell-based, murine; conditions: after 11 days adenosine under hypoxia, 2% horse serum medium 6 days
# Experimental: After C2C12 cells that survived the hypoxic stress in the presence of adenosine were transferred to normoxic conditions without further supply of adenosine, they were cultured continuously for 3 days in the growth medium followed by 2% horse serum-containing medium for another 6 days. […] Nuclei were counterstained with DAPI (Vector). Photomicrographs were obtained using a Leica inverted fluorescence microscope. Myotube formation was also observed by Giemsa staining (1:20, Sigma-Aldrich) using a Zeiss upright light microscope.
# Soleus muscle tissues = experiment: Survival of soleus muscle tissue under hypoxia (H&E, EthD-1 dead assay); type: cell-based, Sprague Dawley rats; conditions: 5 mM adenosine, 10 days hypoxic culture
# Experimental: Soleus muscle tissues dissected immediately after sacrifice of Sprague Dawley rats (17 weeks old, 380-400 g, Harlan) were assigned to one of three groups in the growth medium: (1) native tissue group (2) no adenosine-treated hypoxic group and (3) hypoxic group with 5 mM adenosine supplemented in 2 mL of medium. The media was changed every third day. At day 10, a half of the tissue sample was fixed in 10% neutral buffered formalin (Sigma-Aldrich), 6 μm sections were generated by a cryotome (Leica), and stained with hematoxyline and eosin (H&E). Microscopic analysis was performed using a light microscope (Zeiss). Dead assay was assessed on the remaining tissues using 4 μM ethidium homodimer-1 (EthD-1, Invitrogen) to stain dead cells with damaged cell membranes. The stained sections were observed using a fluorescent microscope (Leica). The number of dead cells was quantitated using the “analyze particle” method with Image J software (U.S. National Institute of Health) on the fluorescence images, and its percentage was calculated based on the number of DAPI-stained cells on each section.
# [2] = test system: Rat tibialis anterior (TA) muscle tissues; experiment: In vitro ischemic tibialis anterior muscle tissue survival (H&E, TUNEL); type: cell-based, Sprague Dawley rats; conditions: 5 mM injected, 3 days incubation
# Experimental: Rat tibialis anterior (TA) muscle tissues were dissected immediately after sacrifice of Sprague Dawley rats (17 weeks old, 380-400 g, Harlan), injected with blank, 5 mM of adenosine or cladribine, and then incubated in 5 mL of complete media for 3 days.
# The tissue samples were fixed in 10% neutral buffered formalin (Sigma-Aldrich), 6 μm sections were generated by a cryotome (Leica), and stained with hematoxyline and eosin (H&E) and with TUNEL staining. Microscopic analyses were performed using a light microscope (Zeiss M1) and ImagePro software.
# C2C12 murine myoblasts = experiment: C2C12 cell counts (PicoGreen dsDNA) under 0.1% hypoxia, then normoxia; type: cell-based
# Experimental: C2C12 murine myoblasts (ATCC) were cultured in a growth medium containing Dulbecco's modified Eagle's medium (DMEM, Gibco) supplemented with 10% FBS, 500 U/mL penicillin and 500 μg/mL streptomycin.
# (§1) Hypoxic condition was maintained with a gas mixture containing 0.1% O2, 5% CO2 and 94.9% N2 at 37° C. and full humidity in an X-Vivo System (Biospherix). […] The hypoxic groups were then placed to the hypoxic chamber and incubated up to day 11, whereas the normoxic group continued to be incubated in the regular incubator. No medium change was made on both normoxic and hypoxic groups up to day 11. After transfer to normoxic conditions, cells were cultured in the regular incubator with an exchange of no adenosine-containing, fresh medium every third day.
# Cell proliferation of each group was determined by a Quanti-iT PicoGreen dsDNA Kit (Invitrogen). After washed with PBS, cells were lysed with 55 μL of RIPA buffer (Sigma) on ice for 5 min, then the supernatants were mixed with an equal volume of PicoGreen dsDNA quantitation reagent, a fluorescent DNA dye (excitation at 480 nm; emission at 520 nm). The DNA content was quantified using a SpectraMax M5 microplate reader (Molecular Devices). The number of cells was calculated using a standard curve plotted from fluorescent readings of serial dilutions of a known concentration of cells.
# Cell viability was visualized using a calcein AM (Invitrogen) where viable cells fluoresce green through the reaction of calcein AM.
# C2C12 cells [3] = experiment: Intracellular ATP level of C2C12 cells under hypoxia; type: cell-based, murine; conditions: 5 mM adenosine
# Experimental: as §1
# Intracellular ATP was measured by using the ATP Bioluminescence Assay Kit HS II (Roche Applied Science). Cells were lysed with 50 μL of lysis buffer and transferred into a well, then 50 μl of luciferase reagent was added to it. After mixing, the light emitted was measured and integrated for 10 seconds by using a SpectraMax M5 luminometer (Molecular Devices). The blank value (from a well containing no ATP) was subtracted from each sample's raw data. ATP concentrations were calculated from the linear part of the standard curve prepared with serial dilutions of a known concentration of ATP and expressed as moles per cell. This, in turn, was re-calculated to a percent ATP of that expressed in the cells grown under normoxic condition.
# C2C12 mouse myoblasts [4] = conditions: 5 mM
# C2C12 cells [5] = experiment: MTS metabolic activity per cell, C2C12 under 0.1% hypoxia; type: cell-based, murine; conditions: 5 mM adenosine
# Experimental: as §1
# Mitochondrial metabolic activity of viable cells was assessed using a 3-(4,5-dimethylthiazol-2-yl)-5-(3-carboxymethoxyphenyl)-2-(4-sulfophenyl)-2H-tetrazolium (MTS) assay (Promega). Cells were rinsed with PBS three times followed by the addition of 120 μL of MTS reagent to each well. After an hour of incubation, optical density (OD) of a brown formazan product by dehydrogenase enzymes in metabolically active cells was measured with a microplate reader at 490 nm. The mean OD value obtained from media blanks was standardized as […]. For some analyses, metabolic activity measured at each time point was normalized by the cell number obtained from PicoGreen assay as previously described. The total metabolic activity represented by the area under the curve over time was computed using Origin Pro v. 8 (Origin Lab Corporation).
# [6] = test system: C2C12 cells, murine myoblasts; experiment: MTS metabolic activity of C2C12 cells under hypoxia with adenosine (Example 1); type: cell-based
# Experimental: Another group receiving daily doses of adenosine ([…], achieved by serial dilution) was incubated for up to 7 days under hypoxia and then placed back into normoxic conditions without additional supply of adenosine. Adenosine was refreshed by the daily exchange of media in which adenosine was completely dissolved. Media to be used under hypoxia was placed in the hypoxic chamber 24 hr prior to use for deoxygenation down to 2% O2. The metabolic activity of viable cells at each pre-determined time point was assessed using an MTS assay, which measures mitochondrial activity of cells.
# C2C12 mouse myoblasts [7] = conditions: 5 mM; for cellular metabolism under hypoxia: MTS
smiles,measurement,setting,value
Nc1ncnc2c1ncn2[C@@H]1O[C@H](CO)[C@@H](O)[C@H]1O [adenosine],myotube formation (differentiating capability),C2C12 cells [1],showed capability of forming myotubes
same,degree of muscle damage (H&E),Soleus muscle tissues,tissues cultured without adenosine showed more damage than those treated with 5 mM adenosine
same,dead cells as percentage of number of DAPI-stained cells,Soleus muscle tissues; EthD-1,46%
same,number of live nuclei (TUNEL),[2],slightly increased live nuclei
same,growth recovery after transfer to normoxic conditions,"C2C12 murine myoblasts; 0.05 mM adenosine, after 11 days 0.1% hypoxia",never recovered even after transfer to normoxic conditions
same,number of cells maintained after 11 days of hypoxic stress,"C2C12 murine myoblasts; 1, 2 and 5 mM adenosine, 0.1% hypoxia, day 11",two to four
same,proliferation after transfer to normal oxygen tension,"C2C12 murine myoblasts; 1, 2 and 5 mM adenosine, after 11 days 0.1% hypoxia",resumed their proliferation at a growth rate comparable to that in normoxic cells
same,most effective adenosine concentration,"C2C12 murine myoblasts; C2C12 survival, 0.1% hypoxia",5 mM
same,time for onset of re-proliferation,"C2C12 murine myoblasts; after transfer to normoxia, 1, 2, 5 mM",concentration-dependent
same,"intracellular ATP level, percentage of that in normoxic cells","C2C12 cells [3]; 0.1% hypoxia, day 11",18%
same,intracellular ATP level vs control cells,"C2C12 cells [3]; throughout the hypoxic duration, p<0.05",consistently higher ATP level
same,proliferation after drug and hypoxia removed,C2C12 mouse myoblasts [4]; treated with ADA,failed to revive after the hypoxia and drug was removed
same,proliferation after drug and hypoxia removed,C2C12 mouse myoblasts [4]; used alone (no ADA),started to regain their normal proliferation
same,cell population under hypoxic condition,"C2C12 mouse myoblasts [4]; used alone (no ADA), 7 days hypoxia",maintain cell population significantly lower than the no treatment control
same,metabolic activity in early hypoxic phase,"C2C12 cells [5]; 0.1% hypoxia, MTS per cell",suppressed initially up to day 5
same,"metabolic activity maintained, of the initial metabolic activity","C2C12 cells [5]; 0.1% hypoxia, day 11, MTS per cell",approximately 68%
same,metabolic activity after transfer to normoxic conditions,C2C12 cells [5]; after 11 days hypoxia,restored to a level equivalent to that in normoxic cells
same,restoration of normal proliferation rate after long-term exposure,"[6]; 22 days under adenosine, various doses",still demonstrated the ability to restore its normal proliferation rate
same,cellular (metabolic) activity under hypoxic conditions,"[6]; C2C12, 0.1% O2, daily adenosine up to 7 days, MTS",maintained a steady state of cellular activity
same,minimum effective concentration of adenosine,"[6]; C2C12, 0.1% O2 hypoxia, MTS metabolic activity",about 1 mM
same,resumption of normal metabolic activity after adenosine removal,"[6]; adenosine removed at day 7, back to normoxia",resumed their normal metabolic activity two days after adenosine was removed at day 7
same,cellular metabolism under hypoxia,C2C12 mouse myoblasts [7]; treated with ADA,failed to reduce cellular metabolism and showed increased metabolic activity when compared to control
same,metabolism after drug and hypoxia removed,C2C12 mouse myoblasts [7]; used alone (no ADA),recovered normal metabolism
same,cellular metabolism under hypoxia,C2C12 mouse myoblasts [7]; used alone (no ADA),minimized cellular metabolism
